Experimental data from patent US20170029841A1, “METHODS AND COMPOSITIONS FOR SELECTIVE REGULATION OF PROTEIN EXPRESSION” (priority 2015, published 2017).

System: maize tissue pools (tassel, ear, leaf, root, stem)
Experiment: siRNA profiling microarray assay of mts-siRNA sequences across maize tissues
Details: for 01DKD2 V8-V9 Tassel relative signal value: germplasm 01DKD2, V8-V9 tassel; for 01DKD2 V10-V12 Tassel relative signal value: germplasm 01DKD2, V10-V12 tassel; for 01DKD2 Other Tissue relative signal value: germplasm 01DKD2, combined signals from other tissue; for LH244 V8-V9 Tassel relative signal value: germplasm LH244, V8-V9 tassel; for LH244 V10-V12 Tassel relative signal value: germplasm LH244, V10-V12 tassel; for LH244 Other Tissue relative signal value: germplasm LH244, combined signals from other tissue
Description: A siRNA profiling microarray assay was performed using μParaflo® Microfluidics chips provided by LC Sciences LLC (Houston, Tex., USA) with 1,200 sequences selected from the thousands of mts-siRNA sequences identified from the differential bioinformatic analysis. The microarray chips contained triplicate probes of the complementary sequence for each of the 1,200 mts-siRNA sequences. Total RNA was purified from 26 maize tissue pools (duplicate or triplicate tissue pools) from either LH244 (ATCC deposit number PTA-1173) or 01DKD2 (I294213) (ATCC deposit number PTA-7859) inbred plants. Each of the 26 RNA samples were hybridized with the microarray chips that contain probes for the 1,200 mts-siRNA. Hybridization images were collected using a GenePix® 4000B laser scanner (Molecular Devices, Sunnyvale, Calif.) and digitized using Array-Pro® Analyzer image analysis software (Media Cybernetics, Rockville, Md.). Relative signal values were derived by background subtraction and normalization. Differentially expressed signals were determined by t-test with p<0.05. From the microarray analysis, about 500 mts-siRNA from the 1,200 were identified as being highly tassel-specific.
Selected mts-siRNA sequences aligning to one of the six cDNA sequences were used for further microarray analysis to determine differential expression across maize tissues. Microarray analysis for mts-siRNA sequences of normalized signal values for V8-V9 tassel, V10-V12 tassel, or combined signals from the other tissue for maize germplasm LH244 and 01DKD2 is presented in Tables 3-10. […] Signal value results are measured as relative signal values and standard error (p<0.05) is represented by (STDR). […] The mts-siRNA sequence corresponds to the sense or antisense strand of the corresponding mts-siRNA target sequence in the cDNA sequence. The mts-siRNA sequence may have a single nucleotide, a two nucleotide, or a three nucleotide mismatch with the aligned portion of the cDNA sequence, and the mts-siRNA sequence may align to the sense strand or antisense strand of the cDNA sequence. The mts-siRNA sequences provided here are found across different maize germplasms.

Row | Substance | 01DKD2 V8-V9 Tassel relative signal value | 01DKD2 V10-V12 Tassel relative signal value | 01DKD2 Other Tissue relative signal value | LH244 V8-V9 Tassel relative signal value | LH244 V10-V12 Tassel relative signal value | LH244 Other Tissue relative signal value
1 | SEQ ID NO: 33: mts-siRNA sequence aligning to cDNA SEQ ID NO: 18 (AGGGTGAATCGGATGTTGAGGTGG; expressed or natural sequence) | 4.5 | 648.5 | 2.8 | 111.5 | 1032.7 | 17.8
2 | SEQ ID NO: 46: mts-siRNA sequence aligning to cDNA SEQ ID NO: 19 (CAGCTAATACGACGACCATTTAGG; expressed or natural sequence) | 252 | 6778 | 6.8 | 4502.5 | 8663.3 | 8.4
3 | SEQ ID NO: 52: mts-siRNA sequence aligning to cDNA SEQ ID NO: 19 (CTGATATCTATGCTAATTCAGG; expressed or natural sequence) | 234 | 3286.5 | 3.5 | 4080 | 3629.7 | 5.5
4 | SEQ ID NO: 39: mts-siRNA sequence aligning to cDNA SEQ ID NO: 18 (CATCGACCAATGACATTCCCTC; expressed or natural sequence) | 16 | 1514.5 | 1.5 | 442.5 | 2157.3 | 0.6
5 | SEQ ID NO: 36: mts-siRNA sequence aligning to cDNA SEQ ID NO: 18 (CGTGCATATCGCCATCCTCTGCT; expressed or natural sequence) | 15.5 | 1225.5 | 4.3 | 906.5 | 606.7 | 2.2
6 | SEQ ID NO: 69: mts-siRNA sequence aligning to cDNA SEQ ID NO: 21 (GCTCATAAAATCACTGTTCAT; expressed or natural sequence) | 309.5 | 282.5 | 9.8 | 516 | 185 | 11.2
7 | SEQ ID NO: 84: mts-siRNA sequence aligning to cDNA SEQ ID NO: 22 (AAGAAGGTGCTTGTTGTC; expressed or natural sequence) | 0 | 20 | 1 | 13 | 35.7 | 4.4
8 | SEQ ID NO: 48: mts-siRNA sequence aligning to cDNA SEQ ID NO: 19 (AAAGTAGCTAACGACCACACCACC; expressed or natural sequence) | 9.5 | 470.5 | 1 | 221 | 720.3 | 4.8
9 | SEQ ID NO: 62: mts-siRNA sequence aligning to cDNA SEQ ID NO: 21 (CAAATGAGTCATCGAAGCTGT; expressed or natural sequence) | 13.5 | 15.5 | 1 | 44.5 | 11.3 | 1.8
10 | SEQ ID NO: 35: mts-siRNA sequence aligning to cDNA SEQ ID NO: 18 (TAGCCACACGGTCACGTTTGGACG; expressed or natural sequence) | 4 | 519 | 2.8 | 437 | 117.7 | 1.6
11 | SEQ ID NO: 75: mts-siRNA sequence aligning to cDNA SEQ ID NO: 22 (ACAGTGACTCACCAGTGCATGCAC; expressed or natural sequence) | 3 | 257 | 5 | 53 | 237.3 | 3.3
12 | SEQ ID NO: 37: mts-siRNA sequence aligning to cDNA SEQ ID NO: 18 (CAGAGGATGGCGATATGCACGTTG; expressed or natural sequence) | 9.5 | 1224.5 | 3.3 | 554 | 553 | 1.5
13 | SEQ ID NO: 77: mts-siRNA sequence aligning to cDNA SEQ ID NO: 22 (AAGGCAAGAAGGTGCTTGTTGTC; expressed or natural sequence) | 0.5 | 225 | 2.5 | 180.5 | 302.7 | 4.1
14 | SEQ ID NO: 71: mts-siRNA sequence aligning to cDNA SEQ ID NO: 22 (AGCTATCGATTCCCTAAGTGCCA; expressed or natural sequence) | 46 | 1943.5 | 2.3 | 1125.5 | 2380 | 1.6
15 | SEQ ID NO: 81: mts-siRNA sequence aligning to cDNA SEQ ID NO: 22 (ACCATCAACGACTACAACGGTGAA; expressed or natural sequence) | 1 | 320 | 0 | 207 | 470.3 | 1.6
16 | SEQ ID NO: 79: mts-siRNA sequence aligning to cDNA SEQ ID NO: 22 (CAAGGCAAGAAGGTGCTTGTTGTCC; expressed or natural sequence) | 5 | 290.5 | 2 | 197.5 | 269.3 | 1.9
17 | SEQ ID NO: 44: mts-siRNA sequence aligning to cDNA SEQ ID NO: 19 (TTGGCGTGAAAGCTCGAGTGCTCC; expressed or natural sequence) | 15.5 | 1443.5 | 6.3 | 756 | 1340 | 1.8
18 | SEQ ID NO: 38: mts-siRNA sequence aligning to cDNA SEQ ID NO: 18 (CTCAACATCCGATTCACCCTCA; expressed or natural sequence) | 8.5 | 1305.5 | 3 | 768.5 | 1442.7 | 1.4
19 | SEQ ID NO: 56: mts-siRNA sequence aligning to cDNA SEQ ID NO: 20 (TACACAGTGTCGTCCTCTTCGT; expressed or natural sequence) | 138.5 | 599.5 | 19.3 | 261 | 692 | 49.5
20 | SEQ ID NO: 25: mts-siRNA sequence aligning to cDNA SEQ ID NO: 17 (ACGACCGTGCATGGTGAT; expressed or natural sequence) | 56 | 440 | 2.3 | 289 | 824.3 | 2.6
